Counter-ions that a name gives are not always drawn.
How the values were obtained:
Format in all cases: cell-based
[1] = biological target: T1, human prostanoid EP4 receptor (Homo sapiens, UniProt P35408); experiment: FLIPR Ca2+ signaling antagonist assay, EP4 receptor stable cell line; details: human recombinant EP4 + chimeric Gqs in HEK-293 EBNA cells; standard agonist PGE2; NA = no antagonism or Kb>=10,000 nM
T1 construct: expressed in transfected cells
Experimental: (§1) The above compounds were tested for PG antagonist activity as follows using human recombinant prostanoid receptor (DP1, EP1-4, FP, IP and TP) stable cell lines:
(§2) In order to measure the response of Gs and Gi coupled prostanoid receptors as a Ca^2+ signal, chimeric G protein cDNAs were used. Stable cell lines over-expressing human prostanoid DP1, EP1-4, FP, IP, and TP receptors were established as follows:
(§3) Briefly, human prostanoid DP1, EP2, and EP4 receptor cDNAs were co-transfected with chimeric Gqs cDNA containing a haemagglutanin (HA) epitope; human prostanoid EP3 receptors were co-transfected with chimeric Gqi-HA; human EP1, FP, IP, and TP receptor cDNAs were expressed with no exogenous G-proteins. Gqs and Gqi chimeric cDNAs (Molecular Devices, Sunnyvale, Calif., U.S.A.), as well as cDNAs of prostanoid receptors, were cloned into a pCEP4 vector with a hygromycin B selection marker. Transfection into HEK-293 EBNA (Epstein-Barr virus nuclear antigen) cells was achieved by the FuGENE 6 transfection Reagent (Roche Applied Science, Indianapolis, Ind., USA). Stable transfectants were selected according to hygromycin resistance. Because Gqs and Gqi contained an HA epitope, G-protein expression was detected by Western blotting analysis using anti-mouse HA monoclonal antibody and horseradish peroxidase (HRP)-conjugated secondary antibody, while functional expression of prostanoid receptors was detected by FLIPR screening (Matias et al., 2004). These stable cell lines were validated using previously published antagonists at 10 μM against serial dilutions of standard agonists by FLIPR functional assays for Ca^2+ Signaling (as described below).
(§4) Ca^2+ signaling studies were performed using a FLIPR TETRA system (Molecular Devices, Sunnyvale, Calif., USA) in the 384-format. This is a high-throughput instrument for cell-based assays to monitor Ca^2+ signaling associated with GPCRs and ion channels. Cells were seeded at a density of 5×10^4 cells/well in BioCoat poly-D-lysine coated, black wall, clear bottom 384-well plates (BD Biosciences, Franklin lakes, NJ, USA) and allowed to attach overnight in an incubator at 37° C. The cells were then washed twice with HBSS-HEPES buffer (Hanks' balanced salt solution without bicarbonate and phenol red, 20 mM HEPES, pH 7.4) using an ELx405 Select CW Microplate Washer (BioTek, Winooski, Vt., USA). After 60 min of dye-loading in the dark using the Ca^2+-sensitive dye Fluo-4AM (Invitrogen, Carlsbad, Calif., USA), at a final concentration of 2×10^−6M, the plates were washed 4 times with HBSS-HEPES buffer to remove excess dye and leaving 50 μl of buffer in each well. The plates were then placed in the FLIPR TETRA instrument and allowed to equilibrate at 37° C. AGN-211377 was added in a 25 μl volume to each well to give final concentrations of 0.1 μl. M, 0.4M, 1 μM, 3 μl. M, 10 μl. M, and 30 μl. M; or 0.067 μM, 0.4M, 0.67 μM, and 1 μM for cells over-expressing TP receptors. After 4.5 minutes, a 7-point serial dilution of the standard agonist for the corresponding receptor, in a 25 μl volume was injected at the final concentrations from 10^−11M to 10^−5M in 10-fold serial dilution increments for cells expressing human recombinant DP1, EP1, EP2, EP3, EP4, FP, and IP receptors. The dose range for the standard agonist for human recombinant TP receptors was from 10^−12M to 10^−6M. HBSS-HEPES buffer was used as the negative control for the standard agonists. Cells were excited with LED (light emitting diode) excitation at 470-495 nm and emission was measured through an emission filter at 515-575 nm. Assay plates were read for 3.5 minutes using the FLIPR^TETRA. The peak increase in fluorescence intensity was recorded for each well. On each plate, negative controls, dose response of positive controls, and co-treatments of antagonist-agonist for each dose were in triplicates. Standard agonists were as follows: DP=BW 245C, EP1-EP4=PGE2, FP=17-phenyl-PGF2a, IP=Cicaprost, and TP=U-46619. […]

[2] = biological target: T2, human prostanoid EP2 receptor (Homo sapiens, UniProt P43116); experiment: FLIPR Ca2+ signaling antagonist assay, EP2 receptor stable cell line; design: key to FLIPR data EP2 (Kb): PAg = partial agonist; Ag = agonist; NA = not active; details: human recombinant EP2 + chimeric Gqs in HEK-293 EBNA cells; standard agonist PGE2; NA = no antagonism or Kb>=10,000 nM
T2 construct: expressed in transfected cells
T2 sequence (P43116 whole entry): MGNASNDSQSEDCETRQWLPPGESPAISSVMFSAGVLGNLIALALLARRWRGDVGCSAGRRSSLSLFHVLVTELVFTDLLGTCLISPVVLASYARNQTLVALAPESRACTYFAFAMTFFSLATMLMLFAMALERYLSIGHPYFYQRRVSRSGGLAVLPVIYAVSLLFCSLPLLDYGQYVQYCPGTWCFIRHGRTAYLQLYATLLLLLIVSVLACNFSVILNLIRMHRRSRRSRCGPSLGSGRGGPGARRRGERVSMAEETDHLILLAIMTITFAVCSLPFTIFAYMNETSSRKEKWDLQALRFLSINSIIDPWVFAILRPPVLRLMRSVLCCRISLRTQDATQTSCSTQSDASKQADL
Experimental: as §1, §2, §3, §4

[3] = biological target: T3, human prostanoid EP3 receptor (Homo sapiens, UniProt P43115); experiment: FLIPR Ca2+ signaling antagonist assay, EP3 receptor stable cell line; details: human recombinant EP3 + chimeric Gqi in HEK-293 EBNA cells; standard agonist PGE2; NA = no antagonism or Kb>=10,000 nM
T3 construct: expressed in transfected cells
T3 sequence (P43115 1-390): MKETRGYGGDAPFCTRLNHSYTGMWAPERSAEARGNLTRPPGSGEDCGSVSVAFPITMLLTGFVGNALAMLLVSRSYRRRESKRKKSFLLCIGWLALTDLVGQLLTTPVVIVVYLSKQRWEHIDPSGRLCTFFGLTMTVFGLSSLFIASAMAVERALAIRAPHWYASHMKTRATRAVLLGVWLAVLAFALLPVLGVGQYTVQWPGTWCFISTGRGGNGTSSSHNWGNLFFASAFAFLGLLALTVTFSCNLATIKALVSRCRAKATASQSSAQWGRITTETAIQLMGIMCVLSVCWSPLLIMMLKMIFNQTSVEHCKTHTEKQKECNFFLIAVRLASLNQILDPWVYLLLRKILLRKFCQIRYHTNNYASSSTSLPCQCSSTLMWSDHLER
Experimental: as §1, §2, §3, §4

[4] = biological target: T4, human prostanoid IP receptor (Homo sapiens, UniProt P43119); experiment: FLIPR Ca2+ signaling antagonist assay, IP receptor stable cell line; design: key to FLIPR data IP (Kb): PAg = partial agonist; Ag = agonist; NA = not active; details: human recombinant IP in HEK-293 EBNA cells; standard agonist Cicaprost; NA = no antagonism or Kb>=10,000 nM
T4 construct: expressed in transfected cells
T4 sequence (P43119 whole entry): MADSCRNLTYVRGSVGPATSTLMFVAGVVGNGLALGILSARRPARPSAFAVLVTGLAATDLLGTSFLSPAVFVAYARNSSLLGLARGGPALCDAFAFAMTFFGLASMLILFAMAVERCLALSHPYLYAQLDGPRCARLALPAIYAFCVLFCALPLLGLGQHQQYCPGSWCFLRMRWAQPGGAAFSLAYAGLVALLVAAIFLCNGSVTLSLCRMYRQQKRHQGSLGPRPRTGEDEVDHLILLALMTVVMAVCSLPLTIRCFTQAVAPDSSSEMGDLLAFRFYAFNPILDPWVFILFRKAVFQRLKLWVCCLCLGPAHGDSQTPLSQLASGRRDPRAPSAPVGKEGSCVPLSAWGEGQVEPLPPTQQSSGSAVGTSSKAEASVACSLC
Experimental: as §1, §2, §3, §4

[5] = biological target: T5, human prostanoid FP receptor (Homo sapiens, UniProt P43088); experiment: FLIPR Ca2+ signaling antagonist assay, FP receptor stable cell line; details: human recombinant FP in HEK-293 EBNA cells; standard agonist 17-phenyl-PGF2a; NA = no antagonism or Kb>=10,000 nM
T5 construct: expressed in transfected cells
T5 sequence (P43088 whole entry): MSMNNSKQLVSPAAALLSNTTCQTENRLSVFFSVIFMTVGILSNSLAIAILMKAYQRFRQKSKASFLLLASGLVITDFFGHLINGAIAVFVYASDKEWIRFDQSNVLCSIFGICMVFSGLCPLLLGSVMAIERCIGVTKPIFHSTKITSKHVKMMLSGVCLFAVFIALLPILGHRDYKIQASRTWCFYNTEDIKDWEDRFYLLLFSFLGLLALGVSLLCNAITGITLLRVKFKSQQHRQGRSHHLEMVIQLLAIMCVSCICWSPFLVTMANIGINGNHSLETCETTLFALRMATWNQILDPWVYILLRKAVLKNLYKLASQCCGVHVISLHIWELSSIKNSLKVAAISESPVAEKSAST
Experimental: as §1, §2, §3, §4

T1 sequence (P35408 whole entry): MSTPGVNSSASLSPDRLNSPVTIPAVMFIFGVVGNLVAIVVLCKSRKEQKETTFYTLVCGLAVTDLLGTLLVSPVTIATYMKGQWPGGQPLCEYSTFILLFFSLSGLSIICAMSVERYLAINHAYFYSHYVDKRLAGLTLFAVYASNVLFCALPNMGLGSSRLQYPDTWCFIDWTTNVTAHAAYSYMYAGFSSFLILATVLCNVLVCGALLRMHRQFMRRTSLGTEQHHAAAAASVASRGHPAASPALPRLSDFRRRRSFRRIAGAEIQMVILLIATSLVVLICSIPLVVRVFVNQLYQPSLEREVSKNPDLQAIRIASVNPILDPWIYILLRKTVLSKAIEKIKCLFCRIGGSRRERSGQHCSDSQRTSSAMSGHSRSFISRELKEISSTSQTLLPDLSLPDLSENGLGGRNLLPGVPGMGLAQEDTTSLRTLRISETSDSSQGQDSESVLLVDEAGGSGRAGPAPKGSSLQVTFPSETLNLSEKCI

Compound	Kb [1]	Kb [2]	Kb [3]	Kb [4]	Kb [5]	FLIPR data IP (Kb) [4]	FLIPR data EP2 (Kb) [2]
CC(C)Cn1ncc2cc(Cl)cc(Cn3cnc4cc(C(=O)O)ccc43)c21 [Compound 50, 1-(5-Chloro-1-isobutyl-1H-indazol-7-ylmethyl)-1H-benzoimidazole-5-carboxylic acid]	0.08 µM	> 10 µM	> 10 µM	> 10 µM	> 10 µM		
CC(C)Cn1ncc2cc(OC(F)(F)F)cc(Cn3cnc4cc(C(=O)O)ccc43)c21 [Compound 56, 1-(1-Isobutyl-5-trifluoromethoxy-1H-indazol-7-ylmethyl)-1H-benzoimidazole-5-carboxylic acid]	0.006 µM	> 10 µM	> 10 µM	9 µM	> 10 µM		
CC(C)n1ncc2cc(Br)cc(Cn3ncc4cc(C(=O)O)ccc43)c21 [Compound 46, 1-(5-Bromo-1-isopropyl-1H-indazol-7-ylmethyl)-1H-indazole-5-carboxylic acid]	0.33 µM	> 10 µM	> 10 µM	> 10 µM	0.2 µM		
CC(C)Cn1ncc2cc(F)cc(Cn3ncc4cc(C(=O)O)ccc43)c21 [Compound 43, 1-(5-Fluoro-1-isobutyl-1H-indazol-7-ylmethyl)-1H-indazole-5-carboxylic acid]	0.1 µM	> 10 µM	> 10 µM	> 10 µM	0.7 µM		
CC(C)Cn1ncc2cc(Cl)cc(Cn3ncc4cc(C(=O)O)cnc43)c21 [Compound 49, 1-(5-Chloro-1-isobutyl-1H-indazol-7-ylmethyl)-1H-pyrazolo[3,4-b]pyridine-5-carboxylic acid]	0.09 µM	> 10 µM	> 10 µM	8.9 µM	1.9 µM		
Cc1nn(Cc2cc(Br)cc3cnn(CC(C)C)c23)c2ccc(C(=O)O)cc12 [Compound 53, 1-(5-Bromo-1-isobutyl-1H-indazol-7-ylmethyl)-3-methyl-1H-indazole-5-carboxylic acid]	0.09 µM	> 10 µM	> 10 µM	> 10 µM	0.07 µM		
CC(C)Cn1ncc2cc(Cl)cc(Cn3nc(N)c4cc(C(=O)O)ccc43)c21 [Compound 68, 3-Amino-1-[(5-chloro-1-isobutyl-indazol-7-yl)methyl]indazole-5-carboxylic acid]	0.06 µM	> 10 µM	> 10 µM	9.3 µM	0.035 µM		
CC(C)Cn1ncc2cc(OC(F)(F)F)cc(Cn3ncc4cc(C(=O)O)ccc43)c21 [Compound 45, 1-(1-Isobutyl-5-trifluoromethoxy-1H-indazol-7-ylmethyl)-1H-indazole-5-carboxylic acid]	0.005 µM	> 10 µM	> 10 µM		0.08 µM	Ag	
CCC(CC)Cn1ncc2cc(Br)cc(Cn3ncc4cc(C(=O)O)ccc43)c21 [Compound 47, 1-[5-Bromo-1-(2-ethyl-butyl)-1H-indazol-7-ylmethyl]-1H-indazole-5-carboxylic acid]	1.7 µM	5 µM	> 10 µM	1 µM	3 µM		
CNc1nn(Cc2cc(Cl)cc3cnn(CC(C)C)c23)c2ccc(C(=O)O)cc12 [Compound 70, 1-[(5-Chloro-1-isobutyl-indazol-7-yl)methyl]-3-(methylamino)indazole-5-carboxylic acid]	0.001 µM	7 µM	8.1 µM	0.9 µM	0.017 µM		
CC(C)Cn1ncc2cc(Cl)cc(Cn3cnc4cc(C(=O)O)cnc43)c21 [Compound 51, 3-(5-Chloro-1-isobutyl-1H-indazol-7-ylmethyl)-3H-imidazo[4,5-b]pyridine-6-carboxylic acid]	0.28 µM	> 10 µM	> 10 µM	8 µM	4.9 µM		
CC(C)Cn1ncc2cc(Cl)cc(Cn3ccc4cc(C(=O)O)cnc43)c21 [Compound 52, 1-(5-Chloro-1-isobutyl-1H-indazol-7-ylmethyl)-1H-pyrrolo[2,3-b]pyridine-5-carboxylic acid]	0.09 µM	> 10 µM	3.4 µM	5.5 µM	0.7 µM		
CC(C)Cn1ncc2cc(C(F)(F)F)cc(Cn3ncc4cc(C(=O)O)ccc43)c21 [Compound 44, 1-(1-Isobutyl-5-trifluoromethyl-1H-indazol-7-ylmethyl)-1H-indazole-5-carboxylic acid]	0.028 µM		> 10 µM		0.15 µM	PAg	PAg
CC(C)Cn1ncc2cc(C(F)(F)F)cc(Cn3cnc4cc(C(=O)O)ccc43)c21 [Compound 55, 1-(1-Isobutyl-5-trifluoromethyl-1H-indazol-7-ylmethyl)-1H-benzoimidazole-5-carboxylic acid]	0.08 µM	> 10 µM	> 10 µM	8.9 µM	3 µM		
CCCn1ncc2cc(Cl)cc(Cn3ncc4cc(C(=O)O)ccc43)c21 [Compound 48]	0.13 µM	> 10 µM	> 10 µM	> 10 µM	0.5 µM		
Cc1nn(Cc2cc(Br)cc3cnn(CC(C)C)c23)c2ncc(C(=O)O)cc12 [Compound 54, 1-(5-Bromo-1-isobutyl-1H-indazol-7-ylmethyl)-3-methyl-1H-pyrazolo[3,4-b]pyridine-5-carboxylic HCl salt]	0.38 µM	> 10 µM	> 10 µM	9.5 µM	0.6 µM		
CC(C)Cn1ncc2cc(Cl)cc(Cc3ncc4cc(C(=O)O)ccn34)c21 [Compound 61, 3-[(5-Chloro-1-isobutyl-indazol-7-yl)methyl]imidazo[1,5-a]pyridine-7-carboxylic acid]	0.2 µM	> 10 µM	> 10 µM	> 10 µM	0.6 µM		
